Patent publication US7385026B1, “Modified ghrelin polypeptides” (priority 1999, dated 2008)
Square brackets hold non-standard residues; d marks the D form. Peptide text beside a SMILES is read from it. * marks the point of attachment. Octanoyl = CCCCCCCC(=O)*; Ava = NCCCCC(=O)O

Molecular target: T1, rat GHS-receptor (GHR-R) (Rattus norvegicus, UniProt O08725)
T1 construct: A full-length cDNA for rat GHR-R was obtained by RT-PCR; expressed in transfected cells
Test: Ca-releasing activity (increase in intracellular calcium) in CHO-GHSR62 cells, FLIPR
Format: cell-based
Conditions: not given
Text: To assay an increase in the intracellular calcium ion concentration (Ca-releasing activity) occurring upon binding of a GH secretagogue (GHS) to GHS-receptor (GHR-R), a cell strain expressing rat GHR-R was created in the following manner. A full-length cDNA for rat GHR-R was obtained by RT-PCR (reverse transcriptase-polymerase chain reaction) where a cDNA derived from rat brain was used as template. From the nucleotide sequence of known rat GHR-R [K. K. Mckee, et al, Molecular Endocrinology 11, 415-423 (1997)], sense and antisense primers consisting of the following nucleotide sequences were synthesized.
The amplified cDNA was ligated to vector pcDNAIII (Invitrogen) to construct expression vector GHSR-pcDNAIII. CHO cells were transformed via the expression vector, and the transformed cells stably expressing GHR-R were selected in a medium containing 1 μg/ml G418. […] A change in the intracellular calcium ion concentration (Ca-releasing activity) was measured by an FLIPR system (Molecular Device). Before this measurement, 4×10^4 CHO-GHSR62 cells were put to a 96-well microplate with black wall (Corning Co., Ltd) and cultured for 12 to 15 hours. Then, the cells were incubated with 4 μM fluorescent Fluo4 (Molecular Probe Co., Ltd) for 1 hour and washed four times with Hank's BSS (Hank's Balanced Salt Solution) containing 20 mM Hepes ([N-2-hydroxyethyl]-piperazine-N-[2-ethanesulfonic acid]) and 2.5 mM probenecid, and the Ca-releasing activity was assayed by adding a sample and measuring a change in the fluorescence.
Peptide fragments obtained by partially digested the rat- and human-derived ghrelins by various proteases, or chemically synthesized peptides, were examined for their Ca releasing activity in order to determine a core amino acid sequence and the optimum chain length of a modifying fatty acid necessary for Ca-releasing activity.
The Ca-increasing activities of the ghrelin derivative peptide-type compounds synthesized in Example 10 and the natural ghrelin peptide were measured in the same manner as in Example 1.
In this examination, the intracellular Ca-releasing activity in CHO cells expressing rat GSH receptor was used as the indicator.

T1 sequence (O08725 whole entry): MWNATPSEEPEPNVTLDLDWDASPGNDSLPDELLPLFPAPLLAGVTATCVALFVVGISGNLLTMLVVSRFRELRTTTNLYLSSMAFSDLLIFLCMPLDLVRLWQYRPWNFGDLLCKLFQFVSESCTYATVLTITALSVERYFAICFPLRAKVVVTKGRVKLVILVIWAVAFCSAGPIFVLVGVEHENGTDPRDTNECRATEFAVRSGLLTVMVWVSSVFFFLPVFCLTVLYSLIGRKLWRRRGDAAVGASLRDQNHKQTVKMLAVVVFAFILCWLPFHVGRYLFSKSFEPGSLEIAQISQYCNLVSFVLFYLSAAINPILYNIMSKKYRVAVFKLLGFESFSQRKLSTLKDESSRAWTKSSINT

SMILES	Ca-releasing activity relative to ghrelin(1-4) amide	Ca-releasing activity of ghrelin (1-4) after amidation relative to before amidation	Ca-releasing activity relative to ghrelin (1-4) before addition of lysine
CCCCCCCC(=O)OC[C@H](NC(=O)[C@H](CO)NC(=O)CN)C(=O)N[C@@H](Cc1ccccc1)C(=O)N[C@@H](CC(C)C)C(N)=O [Compound 32, Ghrelin (1-5)-amide] (H-GSS(Octanoyl)FL-NH2)	about 26 times		
CCCCCCCC(=O)OC[C@H](NC(=O)[C@H](CO)NC(=O)CN)C(=O)N[C@@H](Cc1ccccc1)C(N)=O [Compound 33-2, Ghrelin (1-4)-amide] (H-GSS(Octanoyl)F-NH2)		about 3 times	
CCCCCCCC(=O)OC[C@H](NC(=O)[C@H](CO)NC(=O)CN)C(=O)N[C@@H](Cc1ccccc1)C(=O)N[C@@H](CCCCN)C(N)=O [Compound 38, [Lys^5]-Ghrelin (1-5)-amide] (H-GSS(Octanoyl)FK-NH2)			about 50 times

Same assay, conditions: CHO-GHSR62 cells (CHO cells expressing rat GHS receptor), FLIPR; read-out: Ca-releasing activity EC50

SMILES	EC50
CCCCCCCC(=O)OC[C@H](NC(=O)[C@H](CO)NC(=O)CN)C(=O)N[C@@H](Cc1ccccc1)C(=O)N[C@@H](CC(C)C)C(=O)N[C@@H](CO)C(=O)N1CCC[C@H]1C(=O)N[C@@H](CCC(=O)O)C(=O)N[C@@H](Cc1c[nH]cn1)C(=O)N[C@@H](CCC(N)=O)C(=O)N[C@@H](CCCCN)C(=O)N[C@@H](C)C(=O)N[C@@H](CCC(N)=O)C(=O)N[C@@H](CCCNC(=N)N)C(=O)N[C@@H](CCCCN)C(=O)N[C@@H](CCC(=O)O)C(=O)N[C@@H](CO)C(=O)N[C@@H](CCCCN)C(=O)N[C@@H](CCCCN)C(=O)N1CCC[C@H]1C(=O)N1CCC[C@H]1C(=O)N[C@@H](C)C(=O)N[C@@H](CCCCN)C(=O)N[C@@H](CC(C)C)C(=O)N[C@@H](CCC(N)=O)C(=O)N1CCC[C@H]1C(=O)N[C@@H](CCCNC(=N)N)C(=O)O [Compound 22, [des Gln^14]-rGhrerin] (H-GSS(Octanoyl)FLSPEHQKAQRKESKKPPAKLQPR-OH; N-terminus and C-terminus assumed)	1.5 nM
CCCCCCCC(=O)OC[C@H](NC(=O)[C@H](CO)NC(=O)CN)C(=O)N[C@@H](Cc1ccccc1)C(=O)N[C@@H](CC(C)C)C(=O)N[C@@H](CO)C(=O)N1CCC[C@H]1C(=O)N[C@@H](CCC(=O)O)C(=O)N[C@@H](Cc1c[nH]cn1)C(=O)O [Compound 26, Ghrelin (1-9)] (H-GSS(Octanoyl)FLSPEH-OH)	38 nM
CCCCCCCC(=O)OC[C@H](NC(=O)[C@H](CO)NC(=O)CN)C(=O)N[C@@H](Cc1ccccc1)C(=O)N[C@@H](CC(C)C)C(=O)N[C@@H](CO)C(=O)N1CCC[C@H]1C(=O)N[C@@H](CCC(=O)O)C(N)=O [Compound 28, Ghrelin (1-8)-amide]	13 nM
CCCCCCCC(=O)OC[C@H](NC(=O)[C@H](CO)NC(=O)CN)C(=O)N[C@@H](Cc1ccccc1)C(=O)N[C@@H](CC(C)C)C(=O)N[C@@H](CO)C(=O)N1CCC[C@H]1C(N)=O [Compound 29, Ghrelin (1-7)-amide]	2.6 nM
CCCCCCCC(=O)OC[C@H](NC(=O)[C@H](CO)NC(=O)CN)C(=O)N[C@@H](Cc1ccccc1)C(=O)N[C@@H](CC(C)C)C(=O)N[C@@H](CO)C(N)=O [Compound 30, Ghrelin (1-6)-amide] (H-GSS(Octanoyl)FLS-NH2)	4.8 nM
CCCCCCCC(=O)OC[C@H](NC(=O)[C@H](CO)NC(=O)CN)C(=O)N[C@@H](Cc1ccccc1)C(=O)N[C@@H](CC(C)C)C(N)=O [Compound 32, Ghrelin (1-5)-amide] (H-GSS(Octanoyl)FL-NH2)	6.2 nM
CCCCCCCC(=O)OC[C@H](NC(=O)[C@H](CO)NC(=O)CN)C(=O)N[C@@H](Cc1ccccc1)C(=O)O [Compound 33-1, Ghrelin (1-4)] (H-GSS(Octanoyl)F-OH)	480 nM
CCCCCCCC(=O)OC[C@H](NC(=O)[C@H](CO)NC(=O)CN)C(=O)N[C@@H](Cc1ccccc1)C(N)=O [Compound 33-2, Ghrelin (1-4)-amide] (H-GSS(Octanoyl)F-NH2)	160 nM
CCCCCCCC(=O)OC[C@H](NC(=O)[C@H](CO)NC(=O)CN)C(N)=O [Compound 34, Ghrelin (1-3)-amide] (H-Gly-Ser-Ser(Octanoyl)-NH2)	> 10000 nM
CCCCCCCC(=O)OC[C@H](NC(=O)[C@H](CO)NC(=O)CN)C(=O)N[C@@H](Cc1ccccc1)C(=O)N[C@@H](CC(C)C)C(=O)N[C@@H](CO)C(=O)N1CCC[C@H]1C(=O)N[C@@H](CCCCN)C(N)=O [Compound 35, [Lys^8]-Ghrelin (1-8)-amide] (H-GSS(Octanoyl)FLSPK-NH2)	1.1 nM
CCCCCCCC(=O)OC[C@H](NC(=O)[C@H](CO)NC(=O)CN)C(=O)N[C@@H](Cc1ccccc1)C(=O)N[C@@H](CC(C)C)C(=O)N[C@@H](CO)C(=O)N1CCC[C@H]1C(=O)N[C@@H](CCCNC(=N)N)C(N)=O [Compound 36, [Arg^8]-Ghrelin (1-8)-amide] (H-GSS(Octanoyl)FLSPR-NH2)	1.1 nM
CCCCCCCC(=O)OC[C@H](NC(=O)[C@H](CO)NC(=O)CN)C(=O)N[C@@H](Cc1ccccc1)C(=O)N[C@@H](CC(C)C)C(=O)N[C@@H](CCCCN)C(N)=O [Compound 37, [Lys^6]-Ghrelin (1-6)-amide] (H-GSS(Octanoyl)FLK-NH2)	12 nM
CCCCCCCC(=O)OC[C@H](NC(=O)[C@H](CO)NC(=O)CN)C(=O)N[C@@H](Cc1ccccc1)C(=O)N[C@@H](CCCCN)C(N)=O [Compound 38, [Lys^5]-Ghrelin (1-5)-amide] (H-GSS(Octanoyl)FK-NH2)	10 nM
CCCCCCCC(=O)OC[C@H](NC(=O)[C@H](CO)NC(=O)CN)C(=O)N[C@H](Cc1ccccc1)C(=O)N[C@@H](CCCCN)C(N)=O [Compound 39, [^DPhe^4, Lys^5]-Ghrelin (1-5)-amide] (H-GSS(Octanoyl)[dF]K-NH2)	1700 nM
CCCCCCCC(=O)OC[C@H](NC(=O)CCCCN)C(=O)N[C@@H](Cc1ccccc1)C(=O)N[C@@H](CC(C)C)C(=O)N[C@@H](CO)C(=O)N1CCC[C@H]1C(N)=O [Compound 40, [N-Aminopentanoyl]-Ghrelin (3-7)-amide] (H-[Ava]S(Octanoyl)FLSP-NH2)	3.4 nM
CCCCCCCC(=O)OC[C@H](NC(=O)[C@H](CO)NC(=O)CNC(C)=O)C(=O)N[C@@H](Cc1ccccc1)C(=O)N[C@@H](CC(C)C)C(=O)N[C@@H](CO)C(=O)N1CCC[C@H]1C(=O)N[C@@H](CCC(=O)O)C(=O)N[C@@H](Cc1c[nH]cn1)C(=O)N[C@@H](CCC(N)=O)C(=O)O [Compound 41, [N-Acetyl]-Ghrelin (1-10)]	> 10000 nM
CCCCCCCC(=O)OC[C@H](NC(=O)[C@H](CO)NC(=O)CNC(=O)[C@@H](N)Cc1ccc(O)cc1)C(=O)N[C@@H](Cc1ccccc1)C(=O)N[C@@H](CC(C)C)C(=O)N[C@@H](CO)C(=O)N1CCC[C@H]1C(=O)N[C@@H](CCC(=O)O)C(=O)N[C@@H](Cc1c[nH]cn1)C(=O)N[C@@H](CCC(N)=O)C(=O)N[C@@H](CCCCN)C(=O)N[C@@H](C)C(=O)N[C@@H](CCC(N)=O)C(=O)N[C@@H](CCC(N)=O)C(=O)N[C@@H](CCCNC(=N)N)C(=O)N[C@@H](CCCCN)C(=O)N[C@@H](CCC(=O)O)C(=O)N[C@@H](CO)C(=O)N[C@@H](CCCCN)C(=O)N[C@@H](CCCCN)C(=O)N1CCC[C@H]1C(=O)N1CCC[C@H]1C(=O)N[C@@H](C)C(=O)N[C@@H](CCCCN)C(=O)N[C@@H](CC(C)C)C(=O)N[C@@H](CCC(N)=O)C(=O)N1CCC[C@H]1C(=O)N[C@@H](CCCNC(=N)N)C(=O)O [Compound 42, [N-Tyr]-rGhrelin]	120 nM
CCCCCCCC(=O)OC[C@H](NC(=O)CN)C(=O)N[C@@H](Cc1ccccc1)C(=O)N[C@@H](CC(C)C)C(=O)N[C@@H](CO)C(=O)N1CCC[C@H]1C(N)=O [Compound 43, [N-Glycyl]-Ghrelin (3-7)-amide] (H-GS(Octanoyl)FLSP-NH2)	380 nM
CCCCCCCC(=O)OC[C@H](NC(=O)[C@H](CC(C)C)NC(=O)CN)C(=O)N[C@@H](Cc1ccccc1)C(=O)N[C@@H](CC(C)C)C(=O)N[C@@H](CO)C(=O)N1CCC[C@H]1C(N)=O [Compound 44, [Leu^2]-Ghrelin (1-7)-amide] (H-GLS(Octanoyl)FLSP-NH2)	42 nM

Same assay, conditions: CHO-GHSR62 cells; listed as Ghrelin-27

SMILES	Ca-releasing activity (in words)
CCCCCCCC(=O)OC[C@H](NC(=O)[C@H](CO)NC(=O)CN)C(=O)N[C@@H](Cc1ccccc1)C(=O)N[C@@H](CC(C)C)C(=O)N[C@@H](CO)C(=O)N1CCC[C@H]1C(=O)N[C@@H](CCC(=O)O)C(=O)N[C@@H](Cc1c[nH]cn1)C(=O)N[C@@H](CCC(N)=O)C(=O)N[C@@H](CCCCN)C(=O)N[C@@H](C)C(=O)N[C@@H](CCC(N)=O)C(=O)N[C@@H](CCCNC(=N)N)C(=O)N[C@@H](CCCCN)C(=O)N[C@@H](CCC(=O)O)C(=O)N[C@@H](CO)C(=O)N[C@@H](CCCCN)C(=O)N[C@@H](CCCCN)C(=O)N1CCC[C@H]1C(=O)N1CCC[C@H]1C(=O)N[C@@H](C)C(=O)N[C@@H](CCCCN)C(=O)N[C@@H](CC(C)C)C(=O)N[C@@H](CCC(N)=O)C(=O)N1CCC[C@H]1C(=O)N[C@@H](CCCNC(=N)N)C(=O)O [Compound 22, [des Gln^14]-rGhrerin] (H-GSS(Octanoyl)FLSPEHQKAQRKESKKPPAKLQPR-OH; N-terminus and C-terminus assumed)	completely the same Ca-releasing activity

Same assay, conditions: Table 3, Example 9: protease fragments or synthetic peptides; CHO-GHSR62 cells; read-out: Ca-releasing activity (EC50)

SMILES	EC50
CCCCCCCC(=O)OC[C@H](NC(=O)[C@H](CO)NC(=O)CN)C(=O)N[C@@H](Cc1ccccc1)C(=O)N[C@@H](CC(C)C)C(=O)N[C@@H](CO)C(=O)N1CCC[C@H]1C(=O)N[C@@H](CCC(=O)O)C(=O)N[C@@H](Cc1c[nH]cn1)C(=O)N[C@@H](CCC(N)=O)C(=O)N[C@@H](CCCNC(=N)N)C(=O)O [Compound 23, hGhrelin (1-11)]	15 nM
CCCCCCCC(=O)OC[C@H](NC(=O)[C@H](CO)NC(=O)CN)C(=O)N[C@@H](Cc1ccccc1)C(=O)N[C@@H](CC(C)C)C(=O)N[C@@H](CO)C(=O)N1CCC[C@H]1C(=O)N[C@@H](CCC(=O)O)C(=O)N[C@@H](Cc1c[nH]cn1)C(=O)N[C@@H](CCC(N)=O)C(=O)N[C@@H](CCCCN)C(=O)O [Compound 24, rGbrelin (1-11)]	15 nM
CCCCCCCC(=O)OC[C@H](NC(=O)[C@H](CO)NC(=O)CN)C(=O)N[C@@H](Cc1ccccc1)C(=O)N[C@@H](CC(C)C)C(=O)N[C@@H](CO)C(=O)N1CCC[C@H]1C(=O)N[C@@H](CCC(=O)O)C(=O)N[C@@H](Cc1c[nH]cn1)C(=O)N[C@@H](CCC(N)=O)C(=O)O [Compound 25, Ghrelin (1-10)]	19 nM
CCCCCCCC(=O)OC[C@H](NC(=O)[C@H](CO)NC(=O)CN)C(=O)N[C@@H](Cc1ccccc1)C(=O)N[C@@H](CC(C)C)C(=O)N[C@@H](CO)C(=O)N1CCC[C@H]1C(=O)N[C@@H](CCC(=O)O)C(=O)O [Compound 27, Ghrelin (1-8)]	100 nM
